This is an account of results in patent US11453683B1, “KRas G12D inhibitors” (Mirati Therapeutics, Inc., priority 2019, dated 2022).

The assay concerns KRas G12D-mediated phosphorylation of ERK. Briefly: Inhibition of KRas G12D-mediated phosphorylation of ERK in AGS cells. The conditions noted are these: Homo sapiens; AGS cells expressing G12D, 3 hours, phospho-ERK normalized to GAPDH. It counts as cell-based. The method in brief:
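Fixed, methanol-permeabilized; phospho-ERK (Thr202/Tyr204) by in-cell immunofluorescence normalized to GAPDH. Percent of DMSO control, IC50 by 4-parameter fit.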

pIC50: −log10 of the molar value. Counter-ions that a name gives are not always drawn.

With `C[C@@H]1C[C@@H]1c1ccccc1-c1ncc2c(N3C[C@H]4CC[C@@H](C3)N4)nc(OCC34CCCN3CCC4)nc2c1F` [Example 286, 4-((1R,5S)-3,8-diazabicyclo[3.2.1]octan-3-yl)-8-fluoro-2-((hexahydro-1H-pyrrolizin-7a-yl)methoxy)-7-(2-((1S,2R)-2-methylcyclopropyl)phenyl)pyrido[4,3-d]pyrimidine], the pIC50 (commonly the negative decadic logarithm of the IC50, by convention in mol/L) was 5.76.
The figure for `CC(C)Cn1ccnc1CCOc1nc(N2C[C@H]3CC[C@@H](C2)N3)c2cnc(-c3cc(O)cc4ccccc34)c(F)c2n1` [Example 85, 4-(4-((1R,5S)-3,8-diazabicyclo[3.2.1]octan-3-yl)-8-fluoro-2-(2-(1-isobutyl-1H-imidazol-2-yl)ethoxy)pyrido[4,3-d]pyrimidin-7-yl)naphthalen-2-ol] is less than 4.78.
The figure for `Cc1cccnc1CCOc1nc(N2C[C@H]3CC[C@@H](C2)N3)c2cnc(-c3cc(O)cc4ccccc34)c(F)c2n1` [Example 6, 4-(4-((1R,5S)-3,8-diazabicyclo[3.2.1]octan-3-yl)-8-fluoro-2-(2-(3-methylpyridin-2-yl)ethoxy)pyrido[4,3-d]pyrimidin-7-yl)naphthalen-2-ol] is 4.94; for `COC1CN2CCCC2(COc2nc(N3CC4CCC(C3)N4)c3cnc(-c4cc(O)cc5cccc(F)c45)c(F)c3n2)C1` (mixture of isomers) [Example 388, 4-(4-((1R,5S)-3,8-diazabicyclo[3.2.1]octan-3-yl)-8-fluoro-2-((2-methoxytetrahydro-1H-pyrrolizin-7a(5H)-yl)methoxy)pyrido[4,3-d]pyrimidin-7-yl)-5-fluoronaphthalen-2-ol (mixture of trans diastereomers)] it is 7.40.
`Oc1cc(-c2ncc3c(N4C[C@H]5CC[C@@H](C4)N5)nc(OCC4(C(F)(F)F)CC4)nc3c2F)c2ccccc2c1` [Example 51, 4-(4-((1R,5S)-3,8-diazabicyclo[3.2.1]octan-3-yl)-8-fluoro-2-((1-(trifluoromethyl)cyclopropyl)methoxy)pyrido[4,3-d]pyrimidin-7-yl)naphthalen-2-ol] had a pIC50 of 4.92.
The figure for `Oc1cc(-c2ncc3c(N4C[C@H]5CC[C@@H](C4)N5)nc(OCCCN4CCOCC4)nc3c2F)c2ccccc2c1` [Example 22, 4-(4-((1R,5S)-3,8-diazabicyclo[3.2.1]octan-3-yl)-8-fluoro-2-(3-morpholinopropoxy)pyrido[4,3-d]pyrimidin-7-yl)naphthalen-2-ol] is 5.72.
The figure for `Fc1c(-c2cccc3cccc(F)c23)ncc2c(N3C[C@H]4CC[C@@H](C3)N4)nc(OCC34CCCN3CCC4)nc12` [Example 234, 4-((1R,5S)-3,8-diazabicyclo[3.2.1]octan-3-yl)-8-fluoro-7-(8-fluoronaphthalen-1-yl)-2-((tetrahydro-1H-pyrrolizin-7a(5H)-yl)methoxy)pyrido[4,3-d]pyrimidine] is 6.39.
The figure for `Fc1c(-c2cncc3cccc(Cl)c23)ncc2c(N3C[C@H]4CC[C@@H](C3)N4)nc(OC[C@]34CCCN3C[C@@H](F)C4)nc12` [Example 203, 4-((1R,5S)-3,8-diazabicyclo[3.2.1]octan-3-yl)-7-(5-chloroisoquinolin-4-yl)-8-fluoro-2-(((2S,7aR)-2-fluorotetrahydro-1H-pyrrolizin-7a(5H)-yl)methoxy)pyrido[4,3-d]pyrimidine] is 5.66.
With `OCc1cccc2cccc(-c3ncc4c(N5C[C@H]6CC[C@@H](C5)N6)nc(OCC56CCCN5CCC6)nc4c3F)c12` [Example 238, (8-(4-((1R,5S)-3,8-diazabicyclo[3.2.1]octan-3-yl)-8-fluoro-2-((tetrahydro-1H-pyrrolizin-7a(5H)-yl)methoxy)pyrido[4,3-d]pyrimidin-7-yl)naphthalen-1-yl)methanol], the pIC50 is 5.33. Against the preceding molecule, the pIC50 is 0.33 log units lower.
The figure for `CCc1cccc2cc(O)cc(-c3ncc4c(N5CC6CCC(C5)N6)nc(OC[C@]56CCCN5[C@@H](COC(=O)N(C)C)CC6)nc4c3F)c12` [Example 434, 7a-(((4-((1R,5S)-3,8-diazabicyclo[3.2.1]octan-3-yl)-7-(8-ethyl-3-hydroxynaphthalen-1-yl)-8-fluoropyrido[4,3-d]pyrimidin-2-yl)oxy)methyl)hexahydro-1H-pyrrolizin-3-yl)methyl dimethyl carbamate] is 8.17; for `O[C@H]1CN2CCC[C@@]2(COc2nc(N3CC4CCC(C3)N4)c3cnc(-c4cccc5cccc(Cl)c45)c(F)c3n2)C1` [Example 223, 7a-(((4-((1R,5S)-3,8-diazabicyclo[3.2.1]octan-3-yl)-7-(8-chloronaphthalen-1-yl)-8-fluoropyrido[4,3-d]pyrimidin-2-yl)oxy)methyl)hexahydro-1H-pyrrolizin-2-ol bis-2,2,2-trifluoroacetate] it is 5.37; for `OCC(CO)COc1nc(N2C[C@H]3CC[C@@H](C2)N3)c2cnc(-c3cccc4cccc(Cl)c34)c(F)c2n1` [Example 35, 2-(((4-((1R,5S)-3,8-diazabicyclo[3.2.1]octan-3-yl)-7-(8-chloronaphthalen-1-yl)-8-fluoropyrido[4,3-d]pyrimidin-2-yl)oxy)methyl)propane-1,3-diol] it is 4.95.
The figure for `Nc1nccn1CCOc1nc(N2CC3CCC(C2)N3)c2cnc(-c3cccc4cccc(Cl)c34)c(F)c2n1` [Example 178, 1-[2-[7-(8-chloro-1-naphthyl)-4-(3,8-diazabicyclo[3.2.1]octan-3-yl)-8-fluoro-pyrido[4,3-d]pyrimidin-2-yl]oxyethyl]imidazol-2-amine] is less than 4.78; for `OCCc1cccc2cccc(-c3ncc4c(N5C[C@H]6CC[C@@H](C5)N6)nc(OCC56CCCN5CCC6)nc4c3F)c12` [Example 239, 2-(8-(4-((1R,5S)-3,8-diazabicyclo[3.2.1]octan-3-yl)-8-fluoro-2-((tetrahydro-1H-pyrrolizin-7a(5H)-yl)methoxy)pyrido[4,3-d]pyrimidin-7-yl)naphthalen-1-yl)ethan-1-ol] it is 5.53; for `O[C@H]1CN2CCC[C@]2(COc2nc(N3CC4CCC(C3)N4)c3cnc(-c4cccc5cccc(Cl)c45)c(F)c3n2)C1` (stereo in doubt) [Example 224, 7a-(((4-((1R,5S)-3,8-diazabicyclo[3.2.1]octan-3-yl)-7-(8-chloronaphthalen-1-yl)-8-fluoropyrido[4,3-d]pyrimidin-2-yl)oxy)methyl)hexahydro-1H-pyrrolizin-2-ol bis-hydrochloride] it is 5.20.
The figure for `CCc1c(F)ccc2cc(O)cc(-c3ncc4c(N5C[C@H]6CC[C@@H](C5)N6)nc(OCC56CCCN5CCC6)nc4c3F)c12` [Example 314, 4-(4-((1R,5S)-3,8-diazabicyclo[3.2.1]octan-3-yl)-8-fluoro-2-((hexahydro-1H-pyrrolizin-7a-yl)methoxy)pyrido[4,3-d]pyrimidin-7-yl)-5-ethyl-6-fluoronaphthalen-2-ol] is 8.43; for `C#Cc1c(F)ccc2cc(O)cc(-c3ncc4c(N5C[C@H]6CC[C@@H](C5)N6)nc(OCC56CCCN5CCC6)nc4c3F)c12` [Example 232, 4-(4-((1R,5S)-3,8-diazabicyclo[3.2.1]octan-3-yl)-8-fluoro-2-((tetrahydro-1H-pyrrolizin-7a(5H)-yl)methoxy)pyrido[4,3-d]pyrimidin-7-yl)-5-ethynyl-6-fluoronaphthalen-2-ol] it is 7.82.
